Assay results published in patent US20240066027A1 (DOMAIN THERAPEUTICS, priority 2020, published 2024).

Molecular target: T1, human PAR-2 (hPAR-2) receptor expressed in HEK-293 T cells in an endogenous manner (Homo sapiens, UniProt P55085)
T1 construct: human PAR-2 (hPAR-2) receptor expressed in HEK-293 T cells in an endogenous manner; endogenous in cells; host or cells: HEK-293 T cells
T1 sequence (P55085 26-397): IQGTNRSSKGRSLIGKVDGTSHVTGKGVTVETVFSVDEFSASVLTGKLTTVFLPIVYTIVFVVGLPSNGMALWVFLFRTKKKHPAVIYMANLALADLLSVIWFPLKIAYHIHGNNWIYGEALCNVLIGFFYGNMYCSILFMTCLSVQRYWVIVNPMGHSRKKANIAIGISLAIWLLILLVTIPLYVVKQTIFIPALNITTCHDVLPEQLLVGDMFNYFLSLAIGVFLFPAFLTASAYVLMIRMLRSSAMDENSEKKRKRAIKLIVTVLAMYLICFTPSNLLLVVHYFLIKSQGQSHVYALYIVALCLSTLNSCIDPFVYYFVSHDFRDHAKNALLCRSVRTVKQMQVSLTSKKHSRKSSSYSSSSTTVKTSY
Test: In vitro human PAR-2 functional antagonist activity using calcium assays (Fluo4AM, FLIPR Tetra)
Type: cell-based
Settings: HEK-293 T cells stimulated by an EC80 of the 2-Furoyl-LIGRLO-NH2 peptide after 10 min incubation with compound; 20 concentrations, duplicate, two independent experiments
Procedure, shortened: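 Fluo4AM-loaded HEK-293 T cells were exposed to compound for 10 min to read agonist effect. They were then stimulated with an EC80 of 2-Furoyl-LIGRLO-NH2 and intracellular calcium was recorded for 5 more min on FLIPR. Antagonism was scored against buffer basal and EC80 agonist-alone signals.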

| IC50 | SMILES |
| --- | --- |
| 20 to 10000 nM | Cc1cc(N2CCN(C(=O)c3cc(C)c4c(-c5ccc(Cl)c(F)c5)cn(CC(C)C)c4n3)C(C)(C)C2)nc(C)c1C(=O)O [Example 188, 6-(4-(3-(4-chloro-3-fluorophenyl)-1-isobutyl-4-methyl-1H-pyrrolo[2,3-b]pyridine-6-carbonyl)-3,3-dimethylpiperazin-1-yl)-2,4-dimethyinicotinic acid] |
| 20 to 10000 nM | CC1(C)C(=O)NCCN1C(=O)c1ccc2c(-c3ccc(Cl)c(F)c3)cn(C3CCOCC3)c2n1 [Example 30, 4-(3-(4-chloro-3-fluorophenyl)-1-(tetrahydro-2H-pyran-4-yl)-1H-pyrrolo[2,3-b]pyridine-6-carbonyl)-3,3-dimethylpiperazin-2-one] |
| 20 to 10000 nM | COCC1CN(C(=O)c2ccc3c(-c4ccc(Cl)c(F)c4)cn(C(C)(C)C)c3n2)CCN1c1cc(C)c(C(=O)O)c(C)n1 (centres unmarked) [Example 132, 6-(4-(1-(tert-butyl)-3-(4-chloro-3-fluorophenyl)-1H-pyrrolo[2,3-b]pyridine-6-carbonyl)-2-(methoxymethyl)piperazin-1-yl)-2,4-dimethyinicotinic acid] |
| 20 to 10000 nM | Cc1cc(N2CCN(C(=O)c3ccc4c(-c5ccc(Cl)c(F)c5)cn(CC(C)(C)O)c4n3)C(C)(C)C2)nc(C)c1C(=O)O [Example 180, 6-(4-(3-(4-chloro-3-fluorophenyl)-1-(2-hydroxy-2-methylpropyl)-1H-pyrrolo[2,3-b]pyridine-6-carbonyl)-3,3-dimethylpiperazin-1-yl)-2,4-dimethylnicotinic acid] |
| < 20 nM | CC(C)(C(N)=O)c1ccnc(N2CCN(C(=O)c3ccc4c(-c5ccc(Cl)c(F)c5)cn(C(C)(C)C)c4n3)C(C)(C)C2)c1 [Example 177, 2-(2-(4-(1-(tert-butyl)-3-(4-chloro-3-fluorophenyl)-1H-pyrrolo[2,3-b]pyridine-6-carbonyl)-3,3-dimethylpiperazin-1-yl)pyridin-4-yl)-2-methylpropanamide] |
| < 20 nM | COC[C@H](C)n1cc(-c2ccc(Cl)c(F)c2)c2ccc(C(=O)N3CCN(c4cc(C)c(C(=O)O)c(C)n4)CC3(C)C)nc21 [Example 136, (S)-6-(4-(3-(4-chloro-3-fluorophenyl)-1-(1-methoxypropan-2-yl)-1H-pyrrolo[2,3-b]pyridine-6-carbonyl)-3,3-dimethylpiperazin-1-yl)-2,4-dimethylnicotinic acid] |
| < 20 nM | COC1CC(n2cc(-c3ccc(Cl)c(F)c3)c3ccc(C(=O)N4CCNC(=O)C4(C)C)nc32)C1 (centres unmarked) [Example 28, 4-(3-(4-chloro-3-fluorophenyl)-1-(3-methoxycyclobutyl)-1H-pyrrolo[2,3-b]pyridine-6-carbonyl)-3,3-dimethylpiperazin-2-one] |
| < 20 nM | Cc1cc(N2CCN(C(=O)c3ccc4c(-c5ccc(Cl)c(F)c5)c(C(F)(F)F)n(CC(C)C)c4n3)C(C)(C)C2)nc(C)c1C(=O)O [Example 205, 6-(4-(3-(4-chloro-3-fluorophenyl)-1-isobutyl-2-(trifluoromethyl)-1H-pyrrolo[2,3-b]pyridine-6-carbonyl)-3,3-dimethylpiperazin-1-yl)-2,4-dimethyinicotinic acid] |
| > 10000 nM | COC(=O)c1c(C)cc(N2CCN(C(=O)c3ccc4c(n3)c(CC(C)C)nn4-c3ccc(Cl)c(F)c3)C(C)(C)C2)nc1C [Example 64, methyl 6-(4-(1-(4-chloro-3-fluorophenyl)-3-isobutyl-1H-pyrazolo[4,3-b]pyridine-5-carbonyl)-3,3-dimethylpiperazin-1-yl)-2,4-dimethylnicotinate] |
| < 20 nM | CC(C)(C)c1cn(-c2ccc(Cl)c(F)c2)c2ccc(C(=O)N3CCNC(=O)C3(C)C)nc12 [Example 221, 4-(3-(tert-butyl)-1-(4-chloro-3-fluorophenyl)-1H-pyrrolo[3,2-b]pyridine-5-carbonyl)-3,3-dimethylpiperazin-2-one] |
| 20 to 10000 nM | Cc1cc(N2CCN(C(=O)c3ncc4c(-c5ccc(Cl)c(F)c5)cn(CC(C)C)c4n3)C(C)(C)C2)nc(C)c1C(=O)O [Example 175, 6-(4-(5-(4-chloro-3-fluorophenyl)-7-isobutyl-7H-pyrrolo[2,3-d]pyrimidine-2-carbonyl)-3,3-dimethylpiperazin-1-yl)-2,4-dimethylnicotinic acid] |
| 20 to 10000 nM | CC1(C)CN(C(=O)c2ccc3c(-c4ccc(Cl)c(F)c4)cn(C(C)(C)C)c3n2)CCC1C(=O)O (centres unmarked) [Example 22, 1-(1-(tert-butyl)-3-(4-chloro-3-fluorophenyl)-1H-pyrrolo[2,3-b]pyridine-6-carbonyl)-3,3-dimethylpiperidine-4-carboxylic acid] |
| 20 to 10000 nM | CC(C)(C)n1cc(-c2ccc(Cl)c(F)c2)c2ccc(C(=O)N3CCC(CC(N)=O)CC3)nc21 [Example 163, 2-(1-(1-(tert-butyl)-3-(4-chloro-3-fluorophenyl)-1H-pyrrolo[2,3-b]pyridine-6-carbonyl)piperidin-4-yl)acetamide] |

The remaining lines, values behind:

| SMILES | IC50 |
| --- | --- |
| Cc1cc(N2CCN(C(=O)c3ccc4c(-c5ccc(Cl)c(F)c5)cn(C[C@@H]5CCOC5)c4n3)C(C)(C)C2)nc(C)c1C(=O)O [Example 182, (S)-6-(4-(3-(4-chloro-3-fluorophenyl)-1-((tetrahydrofuran-3-yl)methyl)-1H-pyrrolo[2,3-b]pyridine-6-carbonyl)-3,3-dimethylpiperazin-1-yl)-2,4-dimethylnicotinic acid] | 20 to 10000 nM |
| CC(C)(C)n1cc(-c2ccc(Cl)c(F)c2)c2ccc(C(=O)N3CCC4(CCNC4=O)CC3)nc21 [Example 13, 8-(1-(tert-butyl)-3-(4-chloro-3-fluorophenyl)-1H-pyrrolo[2,3-b]pyridine-6-carbonyl)-2,8-diazaspiro[4.5]decan-1-one] | 20 to 10000 nM |
| CC(C)Cc1nn(-c2ccc(Cl)cc2)c2ccc(C(=O)N3CCNC(=O)C3(C)C)nc12 [Example 85, 4-(1-(4-chlorophenyl)-3-isobutyl-1H-pyrazolo[4,3-b]pyridine-5-carbonyl)-3,3-dimethylpiperazin-2-one] | 20 to 10000 nM |
| CC1(C)C(=O)NCCN1C(=O)c1ccc2c(-c3ccc(Cl)c(F)c3)cn(C(C)(C)C)c2n1 [Example 1, 4-(1-(tert-butyl)-3-(4-chloro-3-fluorophenyl)-1H-pyrrolo[2,3-b]pyridine-6-carbonyl)-3,3-dimethylpiperazin-2-one] | < 20 nM |
| CC(C)Cn1cc(-c2ccc(Cl)cc2Cl)c2ccc(C(=O)N3CCNC(=O)C3(C)C)nc21 [Example 84, 4-(3-(2,4-dichlorophenyl)-1-isobutyl-1H-pyrrolo[2,3-b]pyridine-6-carbonyl)-3,3-dimethylpiperazin-2-one] | 20 to 10000 nM |
| CC(C)(C)c1cn(-c2ccc(Cl)c(F)c2)c2ccc(C(=O)N3CCC(CC(=O)O)CC3)nc12 [Example 222, 2-(1-(3-(tert-butyl)-1-(4-chloro-3-fluorophenyl)-1H-pyrrolo[3,2-b]pyridine-5-carbonyl)piperidin-4-yl)acetic acid] | > 10000 nM |
| CN(C)C(=O)CC1CCN(C(=O)c2ccc3c(-c4ccc(Cl)c(F)c4)cn(C(C)(C)C)c3n2)CC1 [Example 164, 2-(1-(1-(tert-butyl)-3-(4-chloro-3-fluorophenyl)-1H-pyrrolo[2,3-b]pyridine-6-carbonyl)piperidin-4-yl)-N,N-dimethylacetamide] | 20 to 10000 nM |
| CC(C)Cn1cc(-c2ccc(OC(F)(F)F)cc2)c2ccc(C(=O)N3CCNC(=O)C3(C)C)nc21 [Example 116, 4-(1-isobutyl-3-(4-(trifluoromethoxy)phenyl)-1H-pyrrolo[2,3-b]pyridine-6-carbonyl)-3,3-dimethylpiperazin-2-one] | 20 to 10000 nM |
| CC1(C)C(=O)NCCN1C(=O)c1ccc2c(-c3ccc(Cl)c(F)c3)cn(CCOCC(F)(F)F)c2n1 [Example 39, 4-(3-(4-chloro-3-fluorophenyl)-1-(2-(2,2,2-trifluoroethoxy)ethyl)-1H-pyrrolo[2,3-b]pyridine-6-carbonyl)-3,3-dimethylpiperazin-2-one] | 20 to 10000 nM |
| CC(C)Cc1nn(-c2cccc(Cl)c2)c2ccc(C(=O)N3CCNC(=O)C3(C)C)nc12 [Example 67, 4-(1-(3-chlorophenyl)-3-isobutyl-1H-pyrazolo[4,3-b]pyridine-5-carbonyl)-3,3-dimethylpiperazin-2-one] | 20 to 10000 nM |
| CC(C)Cn1cc(-c2ccccc2OC(F)(F)F)c2ccc(C(=O)N3CCNC(=O)C3(C)C)nc21 [Example 112, 4-(1-isobutyl-3-(2-(trifluoromethoxy)phenyl)-1H-pyrrolo[2,3-b]pyridine-6-carbonyl)-3,3-dimethylpiperazin-2-one] | 20 to 10000 nM |
| CCOC(=O)c1ccc(N2CCN(C(=O)c3ccn4c(-c5ccc(Cl)cc5)nc(CC(C)C)c4c3)C(C)(C)C2)nc1 [Example 218, ethyl 6-(4-(3-(4-chlorophenyl)-1-isobutylimidazo[1,5-a]pyridine-7-carbonyl)-3,3-dimethylpiperazin-1-yl)nicotinate] | > 10000 nM |
| Cc1cc(N2CCN(C(=O)c3ccc4c(-c5ccc(Cl)c(F)c5)nn(C(C)(C)C)c4n3)C(C)(C)C2)nc(C)c1C(=O)O [Example 87, 6-(4-(1-(tert-butyl)-3-(4-chloro-3-fluorophenyl)-1H-pyrazolo[3,4-b]pyridine-6-carbonyl)-3,3-dimethylpiperazin-1-yl)-2,4-dimethylnicotinic acid] | 20 to 10000 nM |
